SMILES strings stand for the structures.

For one test, the target named is Recombinant kinase JAK3 (Homo sapiens (Human), UniProt P52333). The test can be described thus: In vitro JAK kinase inhibition assay (ADP-Glo), JAK3. In kind it is biochemical. As to conditions: 30 μM ATP, peptide IGF-1Rtide, averaged. The method, then:
(§1) In Vitro JAK Kinase Inhibition Assay
(§2) The effects of the compounds of the invention were analysed in vitro using kinase JAK inhibition assay described below.
(§3) Tested compounds were dissolved in 100% DMSO, and obtained stock solutions were serially diluted in the reaction buffer (50 mM Tris pH 7.5, 10 mM MgCl2, 0.25 mM EGTA, 0.1 mM Na3VO4, 0.01% Triton X-100, 2.5 mM DTT). Recombinant kinases JAK1 (ProQinase), JAK2, or JAK3 (Carna Biosciences) were diluted in the dilution buffer (50 mM Tris-HCl pH 7.5, 150 mM NaCl, 10% glycerol, 0.05% Triton X-100, 1 mM DTT) to the final concentration 3 ng/μL (JAK1), 0.1 ng/μL (JAK2), or 0.2 ng/μL (JAK3). 5 μL of obtained solution of the compounds and 5 μL of the solution of respective kinases were added to the well of a 96-well plate. To initiate interaction between tested compounds and an enzyme, the plate was incubated for 10 minutes at 25° C. in a Plate-Thermo-Shaker with orbital stirring at 400 rpm. Wells of a negative control contained all reagents as mentioned above with the exception of tested compounds and kinase, and wells of a positive controls contained all reagents as mentioned above with the exception of tested compounds. Enzymatic reaction was initiated by the addition of 15 μL of the following solution: 5× concentrated reaction buffer (50 mM Tris pH 7.5, 10 mM MgCl2, 0.25 mM EGTA, 0.1 mM Na3VO4, 0.01% Triton X-100, 2.5 mM DTT), water, 30 μM ATP and for particular kinases: JAK1—60 μM peptide IRS-1 (Enzo), JAK2 or JAK3—10 μM peptide IGF-1Rtide (Lipopharm). Then the plate was incubated for 1 hour at 25° C. in a Plate-Thermo-Shaker, with orbital stirring at 400 rpm. Detection of ADP formed in the enzymatic reaction was then performed using ADP-Glo Kinase Assay kit (Promega). For this purpose, to the well of the 96-well plate 25 μL of ADP-Glo Reagent were added, and the plate was incubated for 40 minutes at 25° C. in a Plate-Thermo-Shaker with orbital stirring at 400 rpm. Then to the well of the 96-well plate 50 μL of Kinase Detection Reagent were added and the plate was incubated for 30 minutes at 25° C. in a Plate-Thermo-Shaker with orbital stirring at 400 rpm. After incubation, luminescence intensity was measured using Victor×Light luminometer (Perkin Elmer, Inc.).
(§4) On the basis of luminescence measurement in wells containing tested compounds at various concentrations and in control wells, IC50 values were determined. These values were determined with Graph Pad software v. 5.03, by fitting points of the curve using non-linear regression method. Each compound was tested in at least 6 repetitions (6 wells) on two 96-well plates, using at least 3 wells of each control.
Averaged results of kinases JAK inhibition activity for selected compounds of the present invention are presented below in Table 1.

The target in the next test is Recombinant kinase JAK2 (Homo sapiens (Human), UniProt O60674). As to the kind of experiment: In vitro JAK kinase inhibition assay (ADP-Glo), JAK2. It counts as biochemical. The conditions noted are these: 30 μM ATP, peptide IGF-1Rtide, averaged. The protocol:
as §1, §2
as §3, with “Enzymatic reaction was initiated by the addition of 15 μL of the following solution: 5× concentrated reaction buffer (50 mM Tris pH 7.5, 10 mM MgCl2, 0.25 mM EGTA, 0.1 mM Na3VO4, 0.01% Triton X-100, 2.5 mM DTT), water, 30 μM ATP and for particular kinases: JAK1—60 μM peptide IRS-1 (Enzo), JAK2 or JAK3—10 μM peptide IGF-1Rtide (Lipopharm).” left out
as §4

In another test the test system is TF-1 cells. The test can be described thus: TF-1 cells viability in vitro in the presence of IL-3 (JAK2 activation). It counts as cell-based. The conditions noted are these: Homo sapiens, 5 ng/mL IL-3, 72 hours, ATPlite, read-out: JAK2 IL3 (EC50, inhibition of viability of TF-1 cells). The method, then:
Assay for TF-1 Cells Viability In Vitro
The effects of the activity of the compounds of the invention were tested in vitro using cells viability assay described below.
Tested compounds were dissolved in 100% DMSO, and obtained stock solutions were serially diluted in OptiMEM medium (Reduced Serum Medium-Thermo Fisher Scientific). […] To a well of the 96-well plate 10 μL of the prepared 10× stock solutions of the compounds. Cells on 96-well plates were incubated with the compounds for 72 hours at 37° C., 5% CO2. Subsequently, viability of the cells was measured using ATPlite kit (Perkin Elmer). For this purpose, 50 μL of lysis buffer (mammalian cell lysis solution) were added to a well of the 96-well plate and the plate was incubated for 10 minutes at 25° C. in a plate thermo-shaker with orbital stirring at 600 rpm. Then to a well of the 96-well plate 50 μL of substrate (substrate solution) were added and incubated for 15 minutes at in dark, in a plate thermo-shaker with orbital stirring at 600 rpm. After incubation time, luminescence intensity in a well was measured using Victor×Light luminometer (Perkin Elmer, Inc.).
On the basis of luminescence intensity measurements in well containing tested compounds at various concentrations and in control wells EC50 values were determined. These values were determined with Graph Pad software v. […] Each compound was tested in at least 6 repetitions (6 wells) on two 96-well plates, using at least 3 wells of each control.

Recombinant kinase JAK2, sequence (O60674 whole entry): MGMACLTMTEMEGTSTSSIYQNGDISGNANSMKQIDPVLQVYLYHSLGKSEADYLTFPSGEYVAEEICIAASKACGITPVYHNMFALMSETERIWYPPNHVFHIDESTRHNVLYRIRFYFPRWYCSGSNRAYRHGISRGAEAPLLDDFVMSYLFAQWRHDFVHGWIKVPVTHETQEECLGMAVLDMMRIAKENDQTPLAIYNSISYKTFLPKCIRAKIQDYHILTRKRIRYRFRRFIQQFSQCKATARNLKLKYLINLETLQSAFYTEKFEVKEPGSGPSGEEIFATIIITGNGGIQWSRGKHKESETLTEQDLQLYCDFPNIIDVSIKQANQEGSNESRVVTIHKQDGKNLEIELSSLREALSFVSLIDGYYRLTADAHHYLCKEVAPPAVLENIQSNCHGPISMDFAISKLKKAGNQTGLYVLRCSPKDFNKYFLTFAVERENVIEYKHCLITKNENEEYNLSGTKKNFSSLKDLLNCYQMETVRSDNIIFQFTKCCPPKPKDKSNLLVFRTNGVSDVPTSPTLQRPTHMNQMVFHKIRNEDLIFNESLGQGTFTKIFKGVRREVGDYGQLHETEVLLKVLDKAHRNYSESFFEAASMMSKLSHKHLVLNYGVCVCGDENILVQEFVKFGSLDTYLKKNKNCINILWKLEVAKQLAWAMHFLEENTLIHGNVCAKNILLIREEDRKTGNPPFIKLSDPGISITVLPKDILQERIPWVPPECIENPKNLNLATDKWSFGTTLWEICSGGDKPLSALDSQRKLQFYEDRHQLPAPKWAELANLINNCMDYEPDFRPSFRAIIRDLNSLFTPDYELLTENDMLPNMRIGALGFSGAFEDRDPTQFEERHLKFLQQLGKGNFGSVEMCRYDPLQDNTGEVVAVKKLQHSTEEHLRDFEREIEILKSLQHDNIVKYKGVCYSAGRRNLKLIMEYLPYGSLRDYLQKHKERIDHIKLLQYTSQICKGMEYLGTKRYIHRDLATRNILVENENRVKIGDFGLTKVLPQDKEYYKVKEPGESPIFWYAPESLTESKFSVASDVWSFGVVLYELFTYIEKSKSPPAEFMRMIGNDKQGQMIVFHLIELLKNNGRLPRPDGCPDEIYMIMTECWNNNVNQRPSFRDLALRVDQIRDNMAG
Recombinant kinase JAK3, sequence (P52333 whole entry): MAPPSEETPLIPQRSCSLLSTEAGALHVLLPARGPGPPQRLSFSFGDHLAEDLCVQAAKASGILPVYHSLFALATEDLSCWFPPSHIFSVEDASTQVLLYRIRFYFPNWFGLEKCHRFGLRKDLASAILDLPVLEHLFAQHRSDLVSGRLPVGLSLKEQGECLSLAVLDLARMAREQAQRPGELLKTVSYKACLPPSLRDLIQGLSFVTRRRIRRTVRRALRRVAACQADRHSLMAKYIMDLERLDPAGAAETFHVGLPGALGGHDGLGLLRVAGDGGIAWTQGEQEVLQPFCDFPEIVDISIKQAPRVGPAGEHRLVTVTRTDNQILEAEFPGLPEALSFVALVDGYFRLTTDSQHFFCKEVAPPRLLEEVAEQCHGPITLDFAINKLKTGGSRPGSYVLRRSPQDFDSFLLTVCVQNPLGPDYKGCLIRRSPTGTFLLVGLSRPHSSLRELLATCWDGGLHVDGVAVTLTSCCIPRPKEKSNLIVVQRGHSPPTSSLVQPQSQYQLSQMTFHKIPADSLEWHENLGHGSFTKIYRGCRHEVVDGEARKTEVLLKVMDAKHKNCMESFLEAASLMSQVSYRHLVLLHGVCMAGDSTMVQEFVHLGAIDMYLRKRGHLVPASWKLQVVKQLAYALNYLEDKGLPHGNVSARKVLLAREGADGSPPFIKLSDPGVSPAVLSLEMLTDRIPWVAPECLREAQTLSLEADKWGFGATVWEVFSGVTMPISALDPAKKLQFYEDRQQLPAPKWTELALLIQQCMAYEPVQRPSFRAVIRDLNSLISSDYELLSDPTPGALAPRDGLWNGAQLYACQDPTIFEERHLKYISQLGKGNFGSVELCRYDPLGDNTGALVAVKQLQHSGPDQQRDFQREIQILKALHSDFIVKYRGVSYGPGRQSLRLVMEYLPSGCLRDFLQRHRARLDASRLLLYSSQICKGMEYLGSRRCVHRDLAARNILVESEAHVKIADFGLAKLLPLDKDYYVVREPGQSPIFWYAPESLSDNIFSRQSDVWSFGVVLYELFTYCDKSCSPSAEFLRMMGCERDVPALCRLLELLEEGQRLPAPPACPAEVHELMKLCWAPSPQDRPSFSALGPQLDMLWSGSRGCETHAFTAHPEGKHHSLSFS

Regarding `COc1ccc(-c2cc3ncc(C(N)=O)c(N[C@@H]4CCN(c5ccc(C#N)nn5)CC4(C)C)n3n2)cn1` [Example 4, (R)-7-((1-(6-Cyanopyridazin-3-yl)-3,3-dimethylpiperidin-4-yl)amino)-2-(6-methoxy-pyridin-3-yl)pyrazolo[1,5-a]pyrimidine-6-carboxamide], the IC50 at Recombinant kinase JAK3 worked out at 2.67 nM; on Recombinant kinase JAK2 it was 27.7 nM; with TF-1 cells, 707 nM.
On the same counts, the results for `CC1(C)CN(c2ccc(C#N)nn2)CC[C@H]1Nc1c(C(N)=O)cnc2cc(-c3ccc(N4CCOCC4)nc3)nn12` [Example 7, (R)-7-((1-(6-Cyanopyridazin-3-yl)-3,3-dimethylpiperidin-4-yl)amino)-2-(6-morpholinopyridin-3-yl)pyrazolo[1,5-a]pyrimidine-6-carboxamide] are 0.19 nM, 3.4 nM and 283 nM.
On to `COc1cccc(-c2cc3ncc(C(N)=O)c(N[C@@H]4CCN(c5ccc(C#N)nn5)CC4(C)C)n3n2)n1` [Example 11, (R)-7-((1-(6-Cyanopyridazin-3-yl)-3,3-dimethylpiperidin-4-yl)amino)-2-(6-methoxy-pyridin-2-yl)pyrazolo[1,5-a]pyrimidine-6-carboxamide], for which the IC50 at Recombinant kinase JAK3 was determined as 0.03 nM; at Recombinant kinase JAK2, 1.18 nM; with TF-1 cells, 451 nM.
For the compound `Cc1cc(-c2cc3ncc(C(N)=O)c(N[C@@H]4CCN(c5ccc(C#N)nn5)CC4(C)C)n3n2)ccn1` [Example 12, (R)-7-((1-(6-Cyanopyridazin-3-yl)-3,3-dimethylpiperidin-4-yl)amino)-2-(2-methyl-pyridin-4-yl)pyrazolo[1,5-a]pyrimidine-6-carboxamide], the IC50 was 0.29 nM on Recombinant kinase JAK3, 5.05 nM at Recombinant kinase JAK2 and 361 nM in the test with TF-1 cells.
